System: in vitro regenerates (shoots) of Mentha arvensis ‘Himalaya’ somaclones
Test: Menthol tolerance/toxicity test of in vitro regenerates in MS based medium containing menthol
Assay type: cell-based
Description: The applicants used the plant ‘Himalaya’ (U.S. Plant Pat. No. 10,935), an elite mint genotype for large scale screening of in vitro raised clones (Khanuja S P S, Shasany A K, Dhawan S, Sushil Kumar, 1998, Rapid procedure for isolating somaclones of altered genotypes in Mentha arvensis. J medicinal and Aromatic Plant Sciences 20:359-361) to select clones tolerant to high menthol concentration in the medium (An efficient in vitro selection procedure for large scale screening of mint clones to isolate high menthol genotypes. Khanuja et al, Procedure patent pending, 1999).
While testing the tolerance of in vitro regenerates in presence of menthol in the MS based medium (Murashige T and Skoog F, 1962, A revised medium for rapid growth and bioassay with tobacco tissue cultures; Physiol. Planta. 15 473-497), the initial toxicity symptoms were first observed at the menthol concentration of 40 μg ml^−1 menthol after 7 days. […] Here it was immediate chlorophyll loss and irreversible wilting of the shoots, non-rescuable even by culturing these regenerates in normal medium without menthol. Lowest survival was detected at a concentration of 70 μg ml^−1, where only 1% shoots could survive. […] Ultimately 36, clones were selected for tolerance at 70 μg ml^−1 menthol by screening about 2950 clones. These were transferred to field for evaluation in a plant test area at Lucknow, India. […]

CC1CCC(C(C)C)C(O)C1 (centres unmarked) [menthol]
menthol concentration tolerated in the culture medium (clone GRB-30 (‘Saksham’), retesting in vitro): 80 µg/mL | shoots that could survive (lowest survival) (menthol 70 μg ml^−1 in the medium): 1%
